Our source for the percent of control binding values is article PMC7026418, “The kinase polypharmacology landscape of clinical PARP inhibitors” (Scientific Reports, 2020).

The structures appear in SMILES notation. Like-named read-outs stand apart in the source and are kept apart here.

Among the targets are IRAK1 (Homo sapiens, UniProt P51617); SRC (Homo sapiens, UniProt P12931); BRAF(V600E) (Homo sapiens, UniProt P15056, V600E); MYLK2 (Homo sapiens, UniProt Q9H1R3); LIMK2 (Homo sapiens, UniProt P53671); CLK1 (Homo sapiens, UniProt P49759); PIK3CA(H1047L) (Homo sapiens, UniProt P42336, H1047L).
Assay in all cases: biochemical
Common to all, as to design: DiscoveRx KINOMEscan active site-directed competition binding; percent of control kinase bound to immobilised ligand

The target in the next experiment is T1, RIOK3 (Homo sapiens, UniProt O14730).
T1 sequence (O14730 1-519): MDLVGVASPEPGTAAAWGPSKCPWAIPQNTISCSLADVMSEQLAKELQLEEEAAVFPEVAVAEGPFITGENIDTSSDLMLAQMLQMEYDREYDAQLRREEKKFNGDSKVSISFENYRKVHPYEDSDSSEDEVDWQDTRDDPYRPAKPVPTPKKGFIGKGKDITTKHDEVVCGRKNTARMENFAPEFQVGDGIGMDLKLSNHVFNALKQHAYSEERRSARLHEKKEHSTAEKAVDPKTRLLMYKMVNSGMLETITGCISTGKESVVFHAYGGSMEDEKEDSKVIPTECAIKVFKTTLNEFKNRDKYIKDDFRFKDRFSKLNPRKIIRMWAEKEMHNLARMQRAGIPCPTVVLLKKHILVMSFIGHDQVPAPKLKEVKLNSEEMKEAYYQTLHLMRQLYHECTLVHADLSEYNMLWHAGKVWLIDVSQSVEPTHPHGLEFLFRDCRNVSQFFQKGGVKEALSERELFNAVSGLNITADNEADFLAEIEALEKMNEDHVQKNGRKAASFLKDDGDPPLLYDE

A further experiment addresses T2, TAOK1 (Homo sapiens, UniProt Q7L7X3).
T2 sequence (Q7L7X3 1-1001): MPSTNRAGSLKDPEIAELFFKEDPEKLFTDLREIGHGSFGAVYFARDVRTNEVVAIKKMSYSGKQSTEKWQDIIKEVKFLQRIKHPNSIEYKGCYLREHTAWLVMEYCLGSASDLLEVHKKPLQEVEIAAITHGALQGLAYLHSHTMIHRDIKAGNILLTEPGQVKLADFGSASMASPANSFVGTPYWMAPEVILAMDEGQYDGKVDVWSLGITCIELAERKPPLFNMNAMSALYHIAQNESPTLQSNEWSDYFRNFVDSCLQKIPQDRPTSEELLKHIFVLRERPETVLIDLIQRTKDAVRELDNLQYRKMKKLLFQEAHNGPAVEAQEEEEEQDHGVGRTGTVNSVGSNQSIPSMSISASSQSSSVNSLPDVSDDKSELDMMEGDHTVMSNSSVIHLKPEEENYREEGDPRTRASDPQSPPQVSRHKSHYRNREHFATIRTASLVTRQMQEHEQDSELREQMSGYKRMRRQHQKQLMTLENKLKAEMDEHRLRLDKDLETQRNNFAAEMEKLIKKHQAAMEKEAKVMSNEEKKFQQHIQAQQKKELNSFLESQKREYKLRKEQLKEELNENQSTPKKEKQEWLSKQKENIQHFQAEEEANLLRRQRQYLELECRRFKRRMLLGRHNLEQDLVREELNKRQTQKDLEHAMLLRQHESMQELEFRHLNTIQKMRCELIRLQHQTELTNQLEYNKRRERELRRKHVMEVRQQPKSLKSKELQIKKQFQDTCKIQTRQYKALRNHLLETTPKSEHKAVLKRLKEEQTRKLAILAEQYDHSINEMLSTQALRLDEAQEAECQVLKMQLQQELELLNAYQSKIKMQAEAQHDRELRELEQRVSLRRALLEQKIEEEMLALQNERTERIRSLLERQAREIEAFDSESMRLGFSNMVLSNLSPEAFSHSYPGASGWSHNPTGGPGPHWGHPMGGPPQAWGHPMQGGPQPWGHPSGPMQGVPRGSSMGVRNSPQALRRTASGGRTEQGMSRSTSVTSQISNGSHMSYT

For a further experiment, the target named is T3, NIM1 (Homo sapiens, UniProt Q8IY84).
T3 construct: gene NIM1K

A further experiment has as its target T4, PRP4 (Homo sapiens, UniProt Q13523).
T4 construct: gene PRPF4B

The target in the next experiment is T5, GCN2(Kin.Dom.2,S808G) (Homo sapiens, UniProt Q9P2K8, S808G).
T5 construct: gene EIF2AK4; Kin.Dom.2

Another experiment addresses T6, MRCKA (Homo sapiens, UniProt Q5VT25).
T6 construct: gene CDC42BPA

Setting [1] is: read-out: Niraparib (MK-4827) / %Ctrl @ 10000nM.
Where [2] appears, read: read-out: Talazoparib (BMN 673) / %Ctrl @ 10000nM.
The mark [3] stands for this setting: read-out: Rucaparib / %Ctrl @ 10000nM, binding competition, % of control.
Where [4] appears, read: read-out: Olaparib / %Ctrl @ 10000nM.

Chain of PIK3CA(H1047L) (P42336 whole entry H1047L): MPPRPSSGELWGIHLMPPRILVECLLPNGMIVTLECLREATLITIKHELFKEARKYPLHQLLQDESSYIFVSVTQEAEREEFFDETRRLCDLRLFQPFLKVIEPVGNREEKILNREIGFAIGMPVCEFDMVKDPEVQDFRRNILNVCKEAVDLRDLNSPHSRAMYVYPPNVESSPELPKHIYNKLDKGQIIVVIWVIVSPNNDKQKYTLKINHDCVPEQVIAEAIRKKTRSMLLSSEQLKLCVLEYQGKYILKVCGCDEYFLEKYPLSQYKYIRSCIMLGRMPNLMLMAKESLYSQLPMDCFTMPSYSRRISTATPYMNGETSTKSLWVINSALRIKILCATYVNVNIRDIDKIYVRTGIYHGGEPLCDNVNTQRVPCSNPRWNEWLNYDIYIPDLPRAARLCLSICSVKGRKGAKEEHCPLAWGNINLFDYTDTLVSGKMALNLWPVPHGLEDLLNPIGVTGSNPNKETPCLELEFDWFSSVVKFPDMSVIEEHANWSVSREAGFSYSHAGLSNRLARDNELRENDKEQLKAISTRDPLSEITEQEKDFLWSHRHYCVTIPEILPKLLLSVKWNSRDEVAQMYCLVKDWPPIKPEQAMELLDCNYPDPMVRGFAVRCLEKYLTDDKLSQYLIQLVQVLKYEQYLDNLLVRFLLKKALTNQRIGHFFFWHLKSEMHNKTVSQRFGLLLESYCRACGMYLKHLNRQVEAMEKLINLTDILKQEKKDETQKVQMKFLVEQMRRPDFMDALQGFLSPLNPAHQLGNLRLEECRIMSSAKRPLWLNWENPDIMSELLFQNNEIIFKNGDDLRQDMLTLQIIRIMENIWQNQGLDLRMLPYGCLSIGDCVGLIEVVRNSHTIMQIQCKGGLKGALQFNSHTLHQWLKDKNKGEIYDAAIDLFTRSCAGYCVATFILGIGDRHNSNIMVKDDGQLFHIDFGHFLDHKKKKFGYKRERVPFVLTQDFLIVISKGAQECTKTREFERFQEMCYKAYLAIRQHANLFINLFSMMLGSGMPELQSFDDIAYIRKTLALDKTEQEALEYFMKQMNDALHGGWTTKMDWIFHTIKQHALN
Chain of MYLK2 (Q9H1R3 whole entry): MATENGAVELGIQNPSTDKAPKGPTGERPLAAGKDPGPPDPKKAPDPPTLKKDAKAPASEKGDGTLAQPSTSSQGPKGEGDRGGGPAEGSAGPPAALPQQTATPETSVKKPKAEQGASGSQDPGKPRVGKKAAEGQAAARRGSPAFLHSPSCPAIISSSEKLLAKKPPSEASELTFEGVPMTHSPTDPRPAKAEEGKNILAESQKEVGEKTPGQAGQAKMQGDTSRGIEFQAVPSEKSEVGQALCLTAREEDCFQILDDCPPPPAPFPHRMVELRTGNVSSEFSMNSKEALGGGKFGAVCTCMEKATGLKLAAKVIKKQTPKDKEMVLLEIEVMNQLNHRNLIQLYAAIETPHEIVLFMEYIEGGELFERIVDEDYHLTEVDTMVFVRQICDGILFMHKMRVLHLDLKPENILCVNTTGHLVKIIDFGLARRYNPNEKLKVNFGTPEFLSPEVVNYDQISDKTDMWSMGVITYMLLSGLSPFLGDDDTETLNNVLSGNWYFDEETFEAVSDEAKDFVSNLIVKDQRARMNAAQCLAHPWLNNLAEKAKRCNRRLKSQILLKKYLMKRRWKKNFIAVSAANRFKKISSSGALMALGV
Chain of SRC (P12931 whole entry): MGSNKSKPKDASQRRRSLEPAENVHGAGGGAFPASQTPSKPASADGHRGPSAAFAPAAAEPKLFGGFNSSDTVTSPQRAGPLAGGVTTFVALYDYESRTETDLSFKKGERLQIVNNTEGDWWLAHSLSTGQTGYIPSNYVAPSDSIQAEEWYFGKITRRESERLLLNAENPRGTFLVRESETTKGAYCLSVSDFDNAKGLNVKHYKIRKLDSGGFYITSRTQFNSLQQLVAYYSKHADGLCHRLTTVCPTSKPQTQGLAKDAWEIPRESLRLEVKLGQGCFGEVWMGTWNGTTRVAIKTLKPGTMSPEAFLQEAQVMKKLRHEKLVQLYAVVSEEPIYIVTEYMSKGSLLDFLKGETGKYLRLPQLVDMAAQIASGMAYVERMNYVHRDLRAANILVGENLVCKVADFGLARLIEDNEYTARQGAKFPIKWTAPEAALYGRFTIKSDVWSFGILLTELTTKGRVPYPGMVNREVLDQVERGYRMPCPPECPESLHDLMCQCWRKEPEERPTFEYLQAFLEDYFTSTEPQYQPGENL
T4 sequence (Q13523 whole entry): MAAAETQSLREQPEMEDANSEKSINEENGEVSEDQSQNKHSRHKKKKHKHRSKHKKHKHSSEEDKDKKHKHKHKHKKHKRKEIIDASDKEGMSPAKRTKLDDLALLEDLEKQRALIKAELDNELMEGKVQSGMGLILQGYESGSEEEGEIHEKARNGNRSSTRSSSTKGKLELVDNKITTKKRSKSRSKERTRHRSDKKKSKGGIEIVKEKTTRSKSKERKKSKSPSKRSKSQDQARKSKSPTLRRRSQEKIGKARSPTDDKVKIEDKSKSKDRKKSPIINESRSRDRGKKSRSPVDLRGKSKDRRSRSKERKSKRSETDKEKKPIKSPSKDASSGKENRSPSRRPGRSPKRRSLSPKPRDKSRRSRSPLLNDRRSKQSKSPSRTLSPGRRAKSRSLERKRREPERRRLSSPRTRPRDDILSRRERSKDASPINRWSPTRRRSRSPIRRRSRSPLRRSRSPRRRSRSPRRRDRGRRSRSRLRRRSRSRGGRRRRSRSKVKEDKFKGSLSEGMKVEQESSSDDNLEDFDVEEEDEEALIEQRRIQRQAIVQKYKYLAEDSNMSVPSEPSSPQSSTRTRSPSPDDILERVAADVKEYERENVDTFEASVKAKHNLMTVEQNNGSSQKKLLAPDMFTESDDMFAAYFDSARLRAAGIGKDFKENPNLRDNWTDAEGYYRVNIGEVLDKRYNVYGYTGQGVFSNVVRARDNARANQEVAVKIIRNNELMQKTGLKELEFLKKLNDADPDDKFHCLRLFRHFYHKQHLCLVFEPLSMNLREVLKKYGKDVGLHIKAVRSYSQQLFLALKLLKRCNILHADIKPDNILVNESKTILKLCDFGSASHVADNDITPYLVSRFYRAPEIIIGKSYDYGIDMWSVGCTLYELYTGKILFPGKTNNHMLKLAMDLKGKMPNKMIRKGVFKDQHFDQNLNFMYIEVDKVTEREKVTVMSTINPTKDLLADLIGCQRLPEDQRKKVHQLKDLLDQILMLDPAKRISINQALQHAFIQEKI
Chain of IRAK1 (P51617 whole entry): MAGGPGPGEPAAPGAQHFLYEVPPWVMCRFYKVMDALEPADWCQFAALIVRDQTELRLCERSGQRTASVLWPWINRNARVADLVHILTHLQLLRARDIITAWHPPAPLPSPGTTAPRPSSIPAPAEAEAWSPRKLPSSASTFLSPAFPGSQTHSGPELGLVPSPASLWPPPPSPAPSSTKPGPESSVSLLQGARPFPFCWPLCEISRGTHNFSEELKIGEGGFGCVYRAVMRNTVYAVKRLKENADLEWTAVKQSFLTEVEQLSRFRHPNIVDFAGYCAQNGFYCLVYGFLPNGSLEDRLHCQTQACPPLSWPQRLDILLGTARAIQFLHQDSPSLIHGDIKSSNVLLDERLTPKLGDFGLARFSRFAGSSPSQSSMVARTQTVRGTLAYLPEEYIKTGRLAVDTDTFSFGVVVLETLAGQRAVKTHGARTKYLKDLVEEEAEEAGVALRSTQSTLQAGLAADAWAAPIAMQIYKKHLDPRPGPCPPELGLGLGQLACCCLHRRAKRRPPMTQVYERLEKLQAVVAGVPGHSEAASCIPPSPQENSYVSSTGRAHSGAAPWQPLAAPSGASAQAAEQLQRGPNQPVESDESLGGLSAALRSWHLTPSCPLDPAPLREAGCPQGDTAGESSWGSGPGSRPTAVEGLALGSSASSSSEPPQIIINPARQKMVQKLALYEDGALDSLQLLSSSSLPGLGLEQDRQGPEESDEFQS
Chain of LIMK2 (P53671 whole entry): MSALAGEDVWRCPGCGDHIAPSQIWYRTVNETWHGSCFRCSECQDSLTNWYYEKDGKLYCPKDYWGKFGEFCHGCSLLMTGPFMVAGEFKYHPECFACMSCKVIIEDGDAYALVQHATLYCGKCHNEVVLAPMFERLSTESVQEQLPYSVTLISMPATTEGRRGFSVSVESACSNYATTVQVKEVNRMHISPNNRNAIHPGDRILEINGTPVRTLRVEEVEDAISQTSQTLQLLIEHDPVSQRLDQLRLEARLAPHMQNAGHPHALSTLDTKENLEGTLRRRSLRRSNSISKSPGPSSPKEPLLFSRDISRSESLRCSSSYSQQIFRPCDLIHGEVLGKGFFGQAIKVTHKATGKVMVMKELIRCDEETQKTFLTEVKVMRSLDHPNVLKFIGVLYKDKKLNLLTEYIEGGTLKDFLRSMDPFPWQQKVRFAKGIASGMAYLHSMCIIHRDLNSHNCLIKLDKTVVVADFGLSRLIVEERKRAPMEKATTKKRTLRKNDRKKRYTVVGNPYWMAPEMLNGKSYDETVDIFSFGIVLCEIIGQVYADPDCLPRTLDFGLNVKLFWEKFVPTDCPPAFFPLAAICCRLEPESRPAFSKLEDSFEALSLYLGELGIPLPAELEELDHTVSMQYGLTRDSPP
Chain of CLK1 (P49759 whole entry): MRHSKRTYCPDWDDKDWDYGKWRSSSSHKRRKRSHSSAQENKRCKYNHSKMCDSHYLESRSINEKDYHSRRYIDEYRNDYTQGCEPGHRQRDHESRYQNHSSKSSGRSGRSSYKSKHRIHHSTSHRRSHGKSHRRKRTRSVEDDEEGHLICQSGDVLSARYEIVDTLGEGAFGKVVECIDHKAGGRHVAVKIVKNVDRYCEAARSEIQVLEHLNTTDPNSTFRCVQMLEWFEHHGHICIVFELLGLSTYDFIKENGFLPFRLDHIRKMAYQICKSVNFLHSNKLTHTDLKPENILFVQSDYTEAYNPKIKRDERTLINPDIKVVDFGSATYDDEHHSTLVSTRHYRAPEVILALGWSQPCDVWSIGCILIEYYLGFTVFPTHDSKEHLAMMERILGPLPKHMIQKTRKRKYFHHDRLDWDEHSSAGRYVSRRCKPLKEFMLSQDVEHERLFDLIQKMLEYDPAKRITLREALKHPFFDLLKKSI

As for `NC(=O)c1cccc2cn(-c3ccc([C@@H]4CCCNC4)cc3)nc12` [Niraparib], the percent of control binding at 10 µM on IRAK1 (setting [1]) worked out at 18%; on SRC (setting [1]) it was 94%; at RIOK3 (setting [1]), 95%; at TAOK1 (setting [1]) it was 80%; on NIM1 (setting [1]), 100%; on PRP4 (setting [1]), 97%. For the same compound, the percent of control binding at 10 µM at GCN2(Kin.Dom.2,S808G) (setting [1]) worked out at 83%; on BRAF(V600E) (setting [1]), 100%; on MYLK2 (setting [1]), 92%; on LIMK2 (setting [1]), 91%; at CLK1 (setting [1]) it was 48%; on PIK3CA(H1047L) (setting [1]) it was 100%. At MRCKA (setting [1]), the percent of control binding at 10 µM was determined as 100%.

For `Cn1ncnc1[C@H]1c2n[nH]c(=O)c3cc(F)cc(c23)N[C@@H]1c1ccc(F)cc1` [Talazoparib], the percent of control binding at 10 µM on IRAK1 (setting [2]) is 88%; on SRC (setting [2]), 93%; at RIOK3 (setting [2]), 100%; at TAOK1 (setting [2]), 100%; at NIM1 (setting [2]), 79%; at PRP4 (setting [2]), 100%. Further, the percent of control binding at 10 µM was 100% at GCN2(Kin.Dom.2,S808G) (setting [2]); 68% at BRAF(V600E) (setting [2]); 100% at MYLK2 (setting [2]); 100% on LIMK2 (setting [2]); 86% at CLK1 (setting [2]); 100% on PIK3CA(H1047L) (setting [2]). In addition, on MRCKA (setting [2]), the percent of control binding at 10 µM was 100%.

As to `CNCc1ccc(-c2[nH]c3cc(F)cc4c3c2CCNC4=O)cc1` [Rucaparib], the percent of control binding at 10 µM at IRAK1 (setting [3]) worked out at 19%; at SRC (setting [3]), 99%; on RIOK3 (setting [3]), 85%; on TAOK1 (setting [3]) it was 72%; at NIM1 (setting [3]), 71%; at PRP4 (setting [3]), 85%. Further, the percent of control binding at 10 µM worked out at 55% at GCN2(Kin.Dom.2,S808G) (setting [3]); 73% on BRAF(V600E) (setting [3]); 74% at MYLK2 (setting [3]); 96% on LIMK2 (setting [3]); 37% on CLK1 (setting [3]); 87% at PIK3CA(H1047L) (setting [3]). Moreover, the percent of control binding at 10 µM at MRCKA (setting [3]) is 97%.

For `O=C(c1cc(Cc2n[nH]c(=O)c3ccccc23)ccc1F)N1CCN(C(=O)C2CC2)CC1` [Olaparib], the percent of control binding at 10 µM at IRAK1 (setting [4]) turned out to be 82%; at SRC (setting [4]), 100%; on RIOK3 (setting [4]), 100%; on TAOK1 (setting [4]), 96%; at NIM1 (setting [4]), 83%; on PRP4 (setting [4]), 82%. Also, the percent of control binding at 10 µM was 93% at GCN2(Kin.Dom.2,S808G) (setting [4]); 87% at BRAF(V600E) (setting [4]); 100% on MYLK2 (setting [4]); 100% at LIMK2 (setting [4]); 99% on CLK1 (setting [4]); 87% on PIK3CA(H1047L) (setting [4]). Moreover, the percent of control binding at 10 µM at MRCKA (setting [4]) amounted to 98%.
